Measured values reported in US20260092071A1, “COMPOUNDS AND COMPOSITIONS AS SMARCA2/4 DEGRADERS AND USES THEREOF” (REGENTS OF THE UNIVERSITY OF MICHIGAN, priority 2022, published 2026).

Experiments:
[1] = biological target: SMARCA4 (Homo sapiens, UniProt P51532); assay: HiBiT assay for protein degradation, Hela SMARCA4-HiBiT cells (A series); assay type: cell-based; parameters: fuse HiBiT to the carboxy terminus of SMARCA2 (Promega CS302365) or SMARCA4 (Promega CS3023225); host or cells: HeLa (CRISPR/Cas9 HiBiT knock-in); details: Hela SMARCA4-HiBiT cells, 24 hours treatment; for DC50: read-out: SMARC A4 Hela HiBit DC50; for Dmax: read-out: SMARC A4 Hela HiBit Dmax
Sequence of SMARCA4 (P51532 whole entry): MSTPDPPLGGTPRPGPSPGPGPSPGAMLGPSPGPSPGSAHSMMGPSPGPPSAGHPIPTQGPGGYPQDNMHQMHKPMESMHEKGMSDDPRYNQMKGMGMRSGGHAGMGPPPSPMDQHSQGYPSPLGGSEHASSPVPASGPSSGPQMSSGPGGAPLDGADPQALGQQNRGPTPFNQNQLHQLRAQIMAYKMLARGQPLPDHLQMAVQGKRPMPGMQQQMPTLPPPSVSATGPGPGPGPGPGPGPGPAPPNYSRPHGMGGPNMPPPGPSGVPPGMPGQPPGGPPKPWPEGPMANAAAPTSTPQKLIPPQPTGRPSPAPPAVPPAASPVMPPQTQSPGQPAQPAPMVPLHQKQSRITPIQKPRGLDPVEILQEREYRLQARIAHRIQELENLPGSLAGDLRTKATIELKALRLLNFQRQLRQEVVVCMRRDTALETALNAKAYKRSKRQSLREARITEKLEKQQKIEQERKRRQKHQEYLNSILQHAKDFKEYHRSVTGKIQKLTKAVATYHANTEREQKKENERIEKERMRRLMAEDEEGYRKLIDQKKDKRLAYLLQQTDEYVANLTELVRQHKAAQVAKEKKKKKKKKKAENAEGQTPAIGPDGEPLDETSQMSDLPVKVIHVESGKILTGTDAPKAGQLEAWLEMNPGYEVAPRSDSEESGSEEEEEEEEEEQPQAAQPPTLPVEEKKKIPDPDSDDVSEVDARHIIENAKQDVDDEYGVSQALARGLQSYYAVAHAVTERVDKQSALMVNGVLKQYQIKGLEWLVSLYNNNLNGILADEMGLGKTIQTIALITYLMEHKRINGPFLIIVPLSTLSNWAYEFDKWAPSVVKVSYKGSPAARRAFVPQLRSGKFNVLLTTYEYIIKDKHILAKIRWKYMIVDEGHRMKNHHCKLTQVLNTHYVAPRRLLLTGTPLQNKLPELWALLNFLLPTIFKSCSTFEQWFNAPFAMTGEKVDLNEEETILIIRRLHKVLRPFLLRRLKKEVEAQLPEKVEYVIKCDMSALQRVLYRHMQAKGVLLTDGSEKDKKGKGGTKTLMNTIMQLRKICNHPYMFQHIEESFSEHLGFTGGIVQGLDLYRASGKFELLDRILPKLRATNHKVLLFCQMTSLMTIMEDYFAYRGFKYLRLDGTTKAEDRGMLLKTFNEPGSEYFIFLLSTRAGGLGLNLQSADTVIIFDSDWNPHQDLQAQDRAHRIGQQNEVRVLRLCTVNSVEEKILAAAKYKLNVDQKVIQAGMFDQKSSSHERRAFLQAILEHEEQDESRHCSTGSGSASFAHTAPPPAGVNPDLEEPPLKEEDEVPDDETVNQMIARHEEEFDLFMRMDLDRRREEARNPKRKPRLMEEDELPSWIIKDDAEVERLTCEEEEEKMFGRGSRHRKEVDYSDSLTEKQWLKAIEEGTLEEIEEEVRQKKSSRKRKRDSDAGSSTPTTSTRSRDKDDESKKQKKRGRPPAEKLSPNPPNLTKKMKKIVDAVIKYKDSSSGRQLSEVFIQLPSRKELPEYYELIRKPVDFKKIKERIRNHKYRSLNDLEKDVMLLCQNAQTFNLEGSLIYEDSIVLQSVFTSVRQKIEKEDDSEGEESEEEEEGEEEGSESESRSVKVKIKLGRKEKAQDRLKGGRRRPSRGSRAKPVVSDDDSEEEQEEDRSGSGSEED
How it was run: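 SMARCA4 degradation was measured in HeLa cells in which HiBiT had been knocked into the SMARCA4 carboxy terminus via CRISPR/Cas9 (Promega CS3023225). Cells were maintained in DMEM with FBS and penicillin-streptomycin. At the end of treatment, SMARCA4 levels were read by lytic HiBiT luminescence (Nano-Glo®, Promega N3050), and data were analyzed with GraphPad Prism.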

[2] = biological target: SMARCA2 (Homo sapiens, UniProt P51531); assay: HiBiT assay for protein degradation, Hela SMARCA2-HiBiT cells (A series); assay type: cell-based; parameters: Hela cells were genetically modified via CRISPR/Cas9 to fuse HiBiT to the carboxy terminus of SMARCA2; host or cells: HeLa (CRISPR/Cas9 HiBiT knock-in); details: Hela SMARCA2-HiBiT cells, 24 hours treatment; for DC50: read-out: SMARC A2 Hela HiBit DC50; for Dmax: read-out: SMARC A2 Hela HiBit Dmax (%);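 for SMARC A2 Hela HiBit Dmax (%): 24 h compound treatment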
Sequence of SMARCA2 (P51531 whole entry): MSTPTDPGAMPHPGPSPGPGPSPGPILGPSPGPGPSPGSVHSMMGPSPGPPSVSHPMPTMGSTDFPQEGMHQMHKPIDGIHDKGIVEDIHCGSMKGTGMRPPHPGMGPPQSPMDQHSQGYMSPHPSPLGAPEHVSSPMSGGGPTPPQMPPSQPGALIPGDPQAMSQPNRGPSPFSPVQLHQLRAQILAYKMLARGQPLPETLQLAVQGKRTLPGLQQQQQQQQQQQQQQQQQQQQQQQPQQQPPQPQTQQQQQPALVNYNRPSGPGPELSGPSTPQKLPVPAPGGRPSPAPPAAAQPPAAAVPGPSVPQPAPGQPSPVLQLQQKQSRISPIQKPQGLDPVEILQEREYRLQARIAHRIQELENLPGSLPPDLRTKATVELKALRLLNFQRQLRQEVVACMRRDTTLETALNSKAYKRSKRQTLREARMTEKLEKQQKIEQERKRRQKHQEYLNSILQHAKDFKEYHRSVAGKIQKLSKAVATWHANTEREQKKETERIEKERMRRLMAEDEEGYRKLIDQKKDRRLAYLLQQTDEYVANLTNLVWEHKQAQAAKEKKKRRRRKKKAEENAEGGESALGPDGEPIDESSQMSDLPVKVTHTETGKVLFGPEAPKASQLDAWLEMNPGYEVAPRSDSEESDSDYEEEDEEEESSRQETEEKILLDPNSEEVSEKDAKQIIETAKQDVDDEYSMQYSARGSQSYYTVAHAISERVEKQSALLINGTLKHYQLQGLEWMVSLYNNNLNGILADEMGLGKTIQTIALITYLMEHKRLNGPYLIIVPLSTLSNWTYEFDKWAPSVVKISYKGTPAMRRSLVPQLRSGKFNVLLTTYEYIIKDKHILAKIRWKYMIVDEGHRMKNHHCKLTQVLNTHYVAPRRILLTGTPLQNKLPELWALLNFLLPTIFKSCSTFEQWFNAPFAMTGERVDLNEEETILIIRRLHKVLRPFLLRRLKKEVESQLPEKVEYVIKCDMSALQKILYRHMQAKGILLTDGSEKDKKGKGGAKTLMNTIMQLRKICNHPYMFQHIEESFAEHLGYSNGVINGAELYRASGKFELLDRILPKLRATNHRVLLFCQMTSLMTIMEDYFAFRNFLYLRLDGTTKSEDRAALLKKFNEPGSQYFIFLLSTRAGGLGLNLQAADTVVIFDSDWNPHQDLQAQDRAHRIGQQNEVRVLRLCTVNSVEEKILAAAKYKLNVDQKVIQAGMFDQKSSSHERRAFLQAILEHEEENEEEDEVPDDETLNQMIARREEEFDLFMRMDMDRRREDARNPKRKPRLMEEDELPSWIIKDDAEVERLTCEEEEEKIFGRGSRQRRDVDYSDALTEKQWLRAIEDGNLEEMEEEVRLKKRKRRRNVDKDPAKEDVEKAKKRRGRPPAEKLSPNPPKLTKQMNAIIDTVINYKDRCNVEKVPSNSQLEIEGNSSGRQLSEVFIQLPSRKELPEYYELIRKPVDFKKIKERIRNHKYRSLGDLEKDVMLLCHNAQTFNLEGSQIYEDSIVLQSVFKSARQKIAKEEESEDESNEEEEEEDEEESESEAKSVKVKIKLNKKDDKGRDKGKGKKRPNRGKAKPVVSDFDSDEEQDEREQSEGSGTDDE
How it was run: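 SMARCA2 degradation was measured in HeLa cells whose endogenous SMARCA2 carries a carboxy-terminal HiBiT tag introduced by CRISPR/Cas9 (Promega CS302365). Cells were maintained in DMEM with FBS and penicillin-streptomycin. SMARCA2 levels were read at the end of the experiment by Nano-Glo® HiBiT lytic luminescence (Promega N3050) and analyzed in GraphPad Prism.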

Row | SMILES | DC50 [1] [nM] | Dmax [1] [%] | DC50 [2] [nM] | Dmax [2] [%]
1 | Cc1ncoc1-c1ccc([C@H](CN2CCOCC2)NC(=O)[C@@H]2C[C@@H](O)CN2C(=O)[C@@H](n2cc([C@H]3CC[C@H](CN4CCC(c5ccc6c(c5)-n5c(nc(=O)c7c(Cl)cccc75)C65CCCCC5)CC4)CC3)nn2)C(C)(C)C)cc1 [Compound A165, (2S,4R)-1-((S)-2-(4-((1r,4S)-4-((4-(4′-chloro-5′-oxo-5′H-spiro[cyclohexane-1,7′-indolo[1,2-a]quinazolin]-10′-yl)piperidin-1-yl)methyl)cyclohexyl)-1H-1,2,3-triazol-1-yl)-3,3-dimethylbutanoyl)-4-hydroxy-N—((R)-1-(4-(4-methyloxazol-5-yl)phenyl)-2-morpholinoethyl)pyrrolidine-2-carboxamide] | > 1000 | < 50 | < 10 | > 90
2 | Cc1nc(C)c(-c2ccc([C@H](CN3CCOCC3)NC(=O)[C@@H]3C[C@@H](O)CN3C(=O)[C@@H](n3cc([C@H]4CC[C@H](CN5CCC(c6ccc7c(c6)-n6c(nc(=O)c8c(Cl)cccc86)C76CCCCC6)CC5)CC4)nn3)C(C)(C)C)cc2)o1 [Compound A166, (2S,4R)-1-((S)-2-(4-((1r,4S)-4-((4-(4′-chloro-5′-oxo-5′H-spiro[cyclohexane-1,7′-indolo[1,2-a]quinazolin]-10′-yl)piperidin-1-yl)methyl)cyclohexyl)-1H-1,2,3-triazol-1-yl)-3,3-dimethylbutanoyl)-N—((R)-1-(4-(2,4-dimethyloxazol-5-yl)phenyl)-2-morpholinoethyl)-4-hydroxypyrrolidine-2-carboxamide] | > 1000 | < 50 | 10 to 100 | 70 to 90
3 | CC(C)(C)[C@@H](C(=O)N1C[C@H](O)C[C@H]1C(=O)N[C@@H](CN1CCOCC1)c1ccc(-c2scnc2C(F)(F)F)cc1)n1cc([C@H]2CC[C@H](CN3CCC(c4ccc5c(c4)-n4c(nc(=O)c6c(Cl)cccc64)C54CCCCC4)CC3)CC2)nn1 [Compound A167, (2S,4R)-1-((S)-2-(4-((1r,4S)-4-((4-(4′-chloro-5′-oxo-5′H-spiro[cyclohexane-1,7′-indolo[1,2-a]quinazolin]-10′-yl)piperidin-1-yl)methyl)cyclohexyl)-1H-1,2,3-triazol-1-yl)-3,3-dimethylbutanoyl)-4-hydroxy-N—((R)-2-morpholino-1-(4-(4-(trifluoromethyl)thiazol-5-yl)phenyl)ethyl)pyrrolidine-2-carboxamide] | > 1000 | < 50 | > 1000 | < 50

Now from value to molecule:

Row | DC50 [1] [nM] | Dmax [1] [%] | DC50 [2] [nM] | Dmax [2] [%] | SMILES
4 | 100 to 1000 | 50 to 69 | < 10 | > 90 | CC(C)(C)[C@@H](C(=O)N1C[C@H](O)C[C@H]1C(=O)N[C@@H](CN1CCOCC1)c1ccc(-c2ccccc2F)cc1)n1cc([C@H]2CC[C@H](CN3CCC(c4ccc5c(c4)-n4c(nc(=O)c6c(Cl)cccc64)C54CCCCC4)CC3)CC2)nn1 [Compound A164, (2S,4R)-1-((S)-2-(4-((1r,4S)-4-((4-(4′-chloro-5′-oxo-5′H-spiro[cyclohexane-1,7′-indolo[1,2-a]quinazolin]-10′-yl)piperidin-1-yl)methyl)cyclohexyl)-1H-1,2,3-triazol-1-yl)-3,3-dimethylbutanoyl)-N—((R)-1-(2′-fluoro-[1,1′-biphenyl]-4-yl)-2-morpholinoethyl)-4-hydroxypyrrolidine-2-carboxamide]
5 | 100 to 1000 | 50 to 69 | < 10 | > 90 | CC(C)(C)[C@@H](C(=O)N1C[C@H](O)C[C@H]1C(=O)N[C@@H](CN1CCOCC1)c1ccc(-c2cccnc2)cc1)n1cc([C@H]2CC[C@H](CN3CCC(c4ccc5c(c4)-n4c(nc(=O)c6c(Cl)cccc64)C54CCCCC4)CC3)CC2)nn1 [Compound A171, (2S,4R)-1-((S)-2-(4-((1r,4S)-4-((4-(4′-chloro-5′-oxo-5′H-spiro[cyclohexane-1,7′-indolo[1,2-a]quinazolin]-10′-yl)piperidin-1-yl)methyl)cyclohexyl)-1H-1,2,3-triazol-1-yl)-3,3-dimethylbutanoyl)-4-hydroxy-N—((R)-2-morpholino-1-(4-(pyridin-3-yl)phenyl)ethyl)pyrrolidine-2-carboxamide]
